Source: patent publication US5498609A, “Benzoazepinyl compounds as oxytocin and vasopressin antagonists” (Otsuka Pharmaceutical Company, Limited, priority 1992, dated 1996)

Assays:
Oxytocin receptor = target: T1, Oxytocin receptor (Rattus norvegicus, UniProt P70536); experiment: Oxytocin receptor binding assay ([3H]-oxytocin, rat uterine muscle membrane); settings: for IC50: 25° C., one hour, pH 8.0; for inhibition at 10 µM: 10^-5 M test compound, read-out: Inhibitory Rate (%) at 10^-5 M (oxytocin receptor binding assay)
T1 construct: from tissue; host or cells: rat uterine muscle membrane (diethylstilbestrol-treated)
T1 sequence (P70536 1-388): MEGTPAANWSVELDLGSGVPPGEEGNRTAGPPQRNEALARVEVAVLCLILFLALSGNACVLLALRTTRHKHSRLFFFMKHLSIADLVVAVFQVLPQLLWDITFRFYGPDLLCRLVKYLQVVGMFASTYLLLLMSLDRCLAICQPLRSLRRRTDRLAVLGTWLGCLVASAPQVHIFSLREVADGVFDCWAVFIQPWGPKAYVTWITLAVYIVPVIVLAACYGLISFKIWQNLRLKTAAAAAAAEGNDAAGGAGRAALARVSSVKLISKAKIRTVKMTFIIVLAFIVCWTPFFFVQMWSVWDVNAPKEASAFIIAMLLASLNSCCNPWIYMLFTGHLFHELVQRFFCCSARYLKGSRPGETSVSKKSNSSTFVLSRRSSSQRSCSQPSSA
Protocol: Experiment 3: Oxytocin receptor binding assay
According to the method of W. Y. Chan et al. [Endocrinology, 126, 2095-2101 (1990)], uterine muscle is taken out from a rat which has previously been injected subcutaneously with diethylstilbestrol the day before, and homogenized, which is used as a membrane preparation. The membrane preparation (0.2 mg), [^3 H]-oxytocin (100000 dpm, 10^-9 M), a test compound (10^-9 -10^-5 M) are incubated at 25° C. for one hour in 100 mM Tris-HCl buffer (pH 8.0, 250 μl) containing a 5 mM MgCl2, 1 mM MEDTA and 0.1% BSA. The mixture is filtered through the glass filter (GF/B) so as to separate the membrane preparation binding with [^3 H]-oxytocin, and then, washed twice with the buffer (5 ml). This glass filter is put into a vial and mixed with Aquasole (liquid scintillation cocktail). The amount of [^3 H]-oxytocin binding with the membrane is measured by liquid scintillation counter. The rate of the inhibitory effect of the test compound is estimated according to the following equation.
Inhibitory Rate (%)=100-[(C1 -B)/(C0 -B)]×100
C1 : The amount of [^3 H]-oxytocin binding with the membrane in the presence of a test compound (known amount)
C0 : The amount of [^3 H]-oxytocin binding with the membrane in the absence of a test compound
B: The amount of [^3 H]-oxytocin binding with the membrane in the presence of the excess amount of oxytocin (5×10^-6 M).
The results are expressed as IC50 value, which is the concentration of the test compound required to achieve the inhibitory rate in the rate of 50%.

V1 receptor = V1 receptor (Rattus norvegicus, UniProt P30560); experiment: biochemical; settings: rat liver plasma membrane, [3H]-Arg-vasopressin, 37° C., 10 minutes, pH 8.0; read-out: IC50 in V1 receptor binding assay
Protocol: Experiment 1: V1 receptor binding assay
Using rat liver plasma membrane preparations prepared according to Ichihara's method [cf: Akira Ichihara, J. Bio. Chem., 258, 9283 (1983)], the plasma membrane (50000 dpm, 2×10^-10 M) of [^3 H]-Arg-vasopressin and a test compound (60 μg, 10^-8 to 10^-4 M) are incubated at 37° C. for 10 minutes in 100 mM Tris-HCl buffer (pH: 8.0) (250 μl) containing 5 mM MgCl2, 1 mM EDTA and 0.1% BSA. After incubation, the mixture is filtered three times using the glass filter (GF/F) so as to separate the membrane preparation binding with vasopressin and then washed with the buffer (5 ml). This glass filter is taken out and mixed with liquid scintillation cocktail. The amount of [^3 H]-vasopressin binding with the membrane is measured by liquid scintillation counter and the rate of the inhibitory effect of the test compound is estimated according to the following equation. [formula] C1 : The amount of [^3 H]-vasopressin binding with the membrane in the presence of the test compound (known amount)
(§1) C0 : The amount of [^3 H]-vasopressin binding with the membrane in the absence of the test compound
(§2) B1 : The amount of [^3 H]-vasopressin binding with the membrane in the presence of the excess amount of vasopressin (10^-6 M)
(§3) The results are expressed as IC50 value, which is the concentration of the test compound required to achieve the inhibitory effect in the rate of 50%.

V2 receptor = target: T2, V2 receptor (Rattus norvegicus, UniProt Q00788); experiment: biochemical; settings: rat kidney plasma membrane, [3H]-Arg-vasopressin, 4° C., pH 8.0, read-out: IC50 in V2 receptor binding assay
T2 construct: Using rat kidney plasma membrane preparations; from tissue; host or cells: rat kidney plasma membrane
Protocol: Experiment 2: V2 receptor binding assay
Using rat kidney plasma membrane preparations prepared according to O. Hechter's method [cf: J. Bio. Chem., 253, 3211 (1978)], the plasma membrane (100000 dpm, 4×10^-10 M) of [^3 H]-Arg-vasopressin and a test compound (0.6 mg, 10^-10 to 10^-5 M) are incubated at 4° C. for 3 hours in 100 mM Tris-HCl buffer (pH: 8.0) (250 μl) containing 5 mM MgCl2, 1 mM EDTA and 0.1% BSA. After incubation, the mixture is filtered using the glass filter (GF/F) so as to separate the membrane preparation binding with vasopressin and then washed twice with the buffer (each 5 ml). This glass filter is taken out and mixed with liquid scintillation cocktail. The amount of [^3 H]-vasopressin binding with the membrane is measured by liquid scintillation counter and the rate of the inhibitory effect of the test compound is estimated according to the following equation. [formula] C1 : The amount of [^3 H]-vasopressin binding with the membrane in the presence of the test compound (known amount)
as §1, §2, §3

Chain of V1 receptor (P30560 whole entry): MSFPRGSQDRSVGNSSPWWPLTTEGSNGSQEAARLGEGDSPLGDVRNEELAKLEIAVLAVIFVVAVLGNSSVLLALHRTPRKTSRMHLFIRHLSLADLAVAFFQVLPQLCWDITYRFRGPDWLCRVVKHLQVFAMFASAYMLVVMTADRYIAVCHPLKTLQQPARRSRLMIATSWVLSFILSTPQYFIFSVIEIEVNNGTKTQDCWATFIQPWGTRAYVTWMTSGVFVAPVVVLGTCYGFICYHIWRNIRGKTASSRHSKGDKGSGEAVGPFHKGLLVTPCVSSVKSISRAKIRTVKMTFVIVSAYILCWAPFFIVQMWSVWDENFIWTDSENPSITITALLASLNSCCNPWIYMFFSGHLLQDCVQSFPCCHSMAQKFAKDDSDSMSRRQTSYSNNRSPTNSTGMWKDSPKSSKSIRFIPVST
T2 sequence (Q00788 whole entry): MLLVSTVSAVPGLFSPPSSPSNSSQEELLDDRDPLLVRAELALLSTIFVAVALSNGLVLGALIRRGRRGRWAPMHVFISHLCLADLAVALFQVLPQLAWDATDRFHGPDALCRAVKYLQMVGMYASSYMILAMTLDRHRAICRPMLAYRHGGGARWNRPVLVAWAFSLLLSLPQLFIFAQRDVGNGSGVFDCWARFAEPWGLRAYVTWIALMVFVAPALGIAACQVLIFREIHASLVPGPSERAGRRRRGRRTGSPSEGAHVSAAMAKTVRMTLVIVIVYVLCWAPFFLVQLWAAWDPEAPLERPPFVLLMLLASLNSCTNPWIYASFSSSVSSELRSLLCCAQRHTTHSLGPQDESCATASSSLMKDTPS

SMILES | IC50 (Oxytocin receptor) [nM] | IC50 (V1 receptor) [nM] | IC50 (V2 receptor) [nM] | inhibition at 10 µM (Oxytocin receptor) [%]
O=C(Nc1ccc(C(=O)N2CCCC(CCN3CCCC3)c3cc(Cl)ccc32)cn1)c1ccccc1Cl (centres unmarked) [Compound of Ex. 126, 7-chloro-5-[2-(1-pyrrolidinyl)ethyl]-1-[6-(2-chlorobenzoylamino)nicotinoyl]-2,3,4,5-tetrahydro-1H-benzazepine] | 1320 | 19 | 5.3 | 
CNC1CCCN(C(=O)c2ccc(NC(=O)c3ccccc3Cl)nc2)c2ccc(Cl)cc21 (centres unmarked) [Compound of Ex. 80] | 1000 |  |  | 
Cc1ccccc1C(=O)Nc1ccc(C(=O)N2CCCC(OCCN(C)C)c3cc(Cl)ccc32)cn1 (centres unmarked) [Compound of Ex. 37, 7-chloro-5-(2-dimethylaminoethoxy)-1-[6-(2-methylbenzoylamino)nicotinoyl]-2,3,4,5-tetrahydro-1H-benzazepine] | 1140 | 11 | 5 | 
O=C(Nc1ccc(C(=O)N2CCCCc3cc(Cl)ccc32)cn1)c1ccccc1Cl [Compound of Ex. 44] | 307 | 8 | 11 | 
Cc1ccccc1C(=O)Nc1ccc(C(=O)N2CCCCc3cc(Cl)ccc32)cn1 [Compound of Ex. 43] | 290 | 13 | 10 | 
CC(=O)NC1CCN(CCOc2ccccc2C(=O)Nc2ccc(C(=O)N3CCCCc4cc(Cl)ccc43)cn2)CC1 [Compound of Ex. 92] |  | 60 | 380 | 38
O=C1c2ccccc2OCCN1c1ccc(C(=O)N2CCCCc3cc(Cl)ccc32)cn1 [Compound of Ex. 94, 7-chloro-1-[6-(6,7-benzo-1-oxo-4-azepin-5-on-4-yl)nicotinoyl]-2,3,4,5-tetrahydro-1H-benzazepine] | 840 | 42 | 36 | 
Cc1ccccc1C(=O)Nc1ccc(C(=O)N2CCCC(CCO)c3cc(Cl)ccc32)cn1 (centres unmarked) [Compound of Ex. 123] | 320 | 20 | 3.2 | 
O=C(O)CC1CCCN(C(=O)c2ccc(NC(=O)c3ccccc3Br)nc2)c2ccc(Cl)cc21 (centres unmarked) [Compound of Ex. 101] | 3500 | 490 | 33 | 
O=C(Nc1ccc(C(=O)N2CCCCc3cc(Cl)ccc32)cn1)c1ccccc1OCCO [Compound of Ex. 83] | 6600 | 71 | 430 | 
CC(=O)OCCC1CCCN(C(=O)c2ccc(NC(=O)c3ccccc3Cl)nc2)c2ccc(Cl)cc21 (centres unmarked) [Compound of Ex. 122, 7-chloro-5-(2-acetyloxyethyl)-1-[6-(2-chlorobenzoylamino)nicotinoyl]-2,3,4,5-tetrahydro-1H-benzazepine] | 640 | 15 | 3 | 
CN1CCN(C(=O)COc2ccccc2C(=O)Nc2ccc(C(=O)N3CCCCc4cc(Cl)ccc43)cn2)CC1 [Compound of Ex. 88, 7-chloro-1-{6-[2-(4-methyl-1-piperazinyl)-carbonylmethoxybenzoylamino]nicotinoyl}-2,3,4,5-tetrahydro-1H-benzazepine] | 4500 | 26 | 200 | 
C=CCOC1CCCN(C(=O)c2ccc(NC(=O)c3ccccc3Br)nc2)c2ccc(Cl)cc21 (centres unmarked) [Compound of Ex. 76] | 1500 | 27 | 8 | 
CN1CCN(C(=O)CC2CCCN(C(=O)c3ccc(NC(=O)c4ccccc4Cl)nc3)c3ccc(Cl)cc32)CC1 (centres unmarked) [Compound of Ex. 107] | 410 |  |  | 
CCNC(=O)CC1CCCN(C(=O)c2ccc(NC(=O)c3ccccc3Cl)nc2)c2ccc(Cl)cc21 (centres unmarked) [Compound of Ex. 112] | 280 | 9 | 3 | 
CCOC(=O)COc1ccccc1C(=O)Nc1ccc(C(=O)N2CCCCc3cc(Cl)ccc32)cn1 [Compound of Ex. 82] | 9700 |  |  | 

SMILES | IC50 (Oxytocin receptor) [nM] | IC50 (V1 receptor) [nM] | IC50 (V2 receptor) [nM] | inhibition at 10 µM (Oxytocin receptor) [%]
O=C(Nc1ccc(C(=O)N2CCCC(O)(CO)c3cc(Cl)ccc32)cn1)c1ccccc1Cl (centres unmarked) [Compound of Ex. 145] | 1200 |  |  | 
O=C(Nc1ccc(C(=O)N2CCCCc3cc(Cl)ccc32)cn1)c1ccccc1Br [Compound of Ex. 45] | 260 | 5 | 7 | 
O=C(Nc1ccc(C(=O)N2CCCC(CCN3CCOCC3)c3cc(Cl)ccc32)cn1)c1ccccc1Cl (centres unmarked) [Compound of Ex. 127] | 680 | 29 | 5.9 | 
Cc1ccccc1C(=O)Nc1ccc(C(=O)N2CCCC(CC(=O)N3CCCCC3)c3cc(Cl)ccc32)cn1 (centres unmarked) [Compound of Ex. 104] | 510 | 38 | 24 | 
Cc1ccccc1C(=O)Nc1ccc(C(=O)N2CCCC(NC3CC3)c3cc(Cl)ccc32)cn1 (centres unmarked) [Compound of Ex. 77] | 1800 |  |  | 
O=C(Nc1ccc(C(=O)N2CCCC(CC(=O)N3CCCC3)c3cc(Cl)ccc32)cn1)c1ccccc1Cl (centres unmarked) [Compound of Ex. 114] | 320 | 11 | 3 | 
O=C(O)CCCOc1ccccc1C(=O)Nc1ccc(C(=O)N2CCCCc3cc(Cl)ccc32)cn1 [Compound of Ex. 86] |  |  |  | 17
Cc1ccccc1C(=O)Nc1ccc(C(=O)N2CCCC(CC(N)=O)c3cc(Cl)ccc32)cn1 (centres unmarked) [Compound of Ex. 40] | 740 | 44 | 9 | 
NC(=O)COc1ccccc1C(=O)Nc1ccc(C(=O)N2CCCCc3cc(Cl)ccc32)cn1 [Compound of Ex. 97] | 1800 | 5 | 160 | 
O=C(Nc1ccc(C(=O)N2CCCCc3cc(Cl)ccc32)cn1)C1CCCCC1 [Compound of Ex. 46] | 360 |  |  | 
Cc1ccccc1C(=O)Nc1ccc(C(=O)N2CCCN(C)c3cc(Cl)ccc32)cn1 [Compound of Ex. 52] | 1600 | 51 | 22 | 
COC1CCCN(C(=O)c2ccc(NC(=O)c3ccccc3Cl)nc2)c2ccc(Cl)cc21 (centres unmarked) [Compound of Ex. 72] | 440 |  |  | 
CC(C)NCCOc1ccccc1C(=O)Nc1ccc(C(=O)N2CCCCc3cc(Cl)ccc32)cn1 [Compound of Ex. 91] |  |  |  | 38
CN1CCN(C(=O)CCCOc2ccccc2C(=O)Nc2ccc(C(=O)N3CCCCc4cc(Cl)ccc43)cn2)CC1 [Compound of Ex. 89] | 7300 |  |  | 
CCN(CC)CCN(C)C(=O)CC1CCCN(C(=O)c2ccc(NC(=O)c3ccccc3Br)nc2)c2ccc(Cl)cc21 (centres unmarked) [Compound of Ex. 120] | 350 |  |  | 
